{"source": "paper PMC10746112", "about": "“Synthesis and Pro-Apoptotic Effects of Nitrovinylanthracenes and Related Compounds in Chronic Lymphocytic Leukaemia (CLL) and Burkitt’s Lymphoma (BL)” (Molecules, 2023)", "key": {"[1]": {"tested_on": "peripheral blood mononuclear cells (PBMCs)", "assay": "viability of peripheral blood mononuclear cells", "type": "cell-based, human", "details": "24 h, healthy donor PBMCs", "experimental": "(§1) The nitrostyrene 11h was evaluated for its cytotoxic effect on healthy donor peripheral blood mononuclear cells (PBMCs) to determine the selective toxicity of compounds containing the nitrostyrene pharmacophore on malignant BL cell lines over normal blood cells. Compound 11h was evaluated at 1 μM and 10 μM concentrations over a 24 h treatment time (Supplementary Information, Table S8).\n(§2) Cells were seeded at a density of 2.5 × 10^4 cells/well (MCF-7, MDA-MB-231 cells), 1 × 10^4 cells/well (HL-60 cells), 1–5 × 10^4 cells per well (BL MUTU-I, DG-75 cells) and 2 × 10^5 cells/well [HG-3, PGA-1 (CLL cells)], Ramos, BJAB (BL cells) (200 μL per well), in 96-well plates. Cells were treated with the desired drug concentration for the appropriate time for each cell type, and the samples were incubated as required. alamarBlue (20 μL) was then added to each well and the samples further incubated in the dark at 37 °C for 4 h. Wells containing only reagent and cell culture medium in the absence of cells were used as blank controls. Ethanol was used as a vehicle, and cells were treated with 1% ethanol (v/v) in all experiments. The 96-well plates were analysed on a fluorescence plate reader (SpectraMax Gemini, Molecular Devices) (emission and excitement wavelengths of 590 nm and 544 nm, respectively), and the fluorescence was recorded. The decrease in cell viability was then calculated with reference to the vehicle samples (100% viability). EMEM medium with the addition of alamarBlue was used as a blank. Vehicle-treated cells were considered to be 100% viable, and the viabilities of each compound was calculated accordingly. […] All biochemical assays were performed in triplicate on at least three independent occasions, and the mean values were determined.\n(§3) Peripheral blood was obtained from healthy donors (n = 2) after informed consent was received. The blood was then placed into a 50 mL falcon tube and diluted with an equal volume of phosphate-buffered saline (PBS). PBMCs were isolated using density gradient centrifugation using LymphoPrep as described previously Approval for this study was obtained from the School of Pharmacy and Pharmaceutical Sciences Trinity College Dublin Research Ethics Committee (2020-06-01-MS)."}, "[2]": {"assay": "viability of peripheral blood mononuclear cells", "type": "cell-based, human", "details": "human, healthy donor PBMCs", "experimental": "as §1, §2, §3"}, "MUTU-1 cells": {"tested_on": "MUTU-1 cells", "set-up": "method as in earlier work", "details": "nitrostyrenes and taxol, MTT assay, reported data; cited from earlier work"}, "DG-75 cells": {"tested_on": "DG-75 cells", "set-up": "method as in earlier work", "details": "nitrostyrenes and taxol, MTT assay, reported data; cited from earlier work"}, "Bjab BL cell line": {"tested_on": "Bjab BL cell line", "assay": "alamarBlue cell viability assay", "type": "cell-based", "details": "Homo sapiens, 24 h", "experimental": "as §2"}, "Ramos BL cell line": {"tested_on": "Ramos BL cell line", "assay": "alamarBlue cell viability assay", "type": "cell-based", "details": "Homo sapiens, 24 h", "experimental": "as §2"}}, "data": [{"smiles": "C/C(=C\\c1cccc(Cl)c1)[N+](=O)[O-]", "note": "[Compound 11h]", "values": [{"measurement": "PBMCs % viability", "setting": "[1]; 1 µM", "result": "73.66±3.725", "unit": "%"}, {"measurement": "PBMCs % viability", "setting": "[1]; 10 µM", "result": "34.08±9.587", "unit": "%"}, {"measurement": "viability at 24 h, 1 µM", "setting": "[2]; 1 µM", "result": 74, "unit": "%"}, {"measurement": "viability at 24 h, 10 µM", "setting": "[2]; 10 µM", "result": 34.1, "unit": "%"}, {"measurement": "IC50", "setting": "MUTU-1 cells", "result": 880, "unit": "nM"}, {"measurement": "IC50", "setting": "DG-75 cells", "result": 2250, "unit": "nM"}, {"measurement": "viability at 1 µM", "setting": "Bjab BL cell line; read-out: % Viable Cells Remaining Bjab 24 h 1 µM", "result": 90.1, "unit": "%"}, {"measurement": "viability at 10 µM", "setting": "Bjab BL cell line; read-out: % Viable Cells Remaining Bjab 24 h 10 µM", "result": 46.2, "unit": "%"}, {"measurement": "viability at 1 µM", "setting": "Ramos BL cell line; read-out: % Viable Cells Remaining Ramos 24 h 1 µM", "result": 27.2, "unit": "%"}, {"measurement": "viability at 10 µM", "setting": "Ramos BL cell line; read-out: % Viable Cells Remaining Ramos 24 h 10 µM", "result": 5.1, "unit": "%"}]}]}
